According to patent publication US11505548B2, “Heterocyclic compounds and their use for treatment of helminthic infections and diseases” (Celgene Corporation, priority 2019, dated 2022):
pIC50: −log10 of the molar value.

Test system: Onchocerca gutturosa Adult Male Worms
Assay: Onchocerciasis in vitro screening model, worm motility score
Format: cell-based
Details: Onchocerca gutturosa; Table 1 O. gutturosa; levels A/B/C; motility or MTT readout not specified; read-out: O. gutturosa activity level (IC50 or MED)

Compound | pIC50
Cc1cccnc1Nc1nc(-c2ccc(C3CCN(C)CC3)cn2)ns1 [Compound 48, 3-(5-(1-methyl-piperidin-4-yl)pyridin-2-yl)-N-(3-methylpyridin-2-yl)-1,2,4-thiadiazol-5-amine] | 5.30 to 6.30
Cc1cccnc1-c1nsc(Nc2ccc(C3CCN(C)CC3)cn2)n1 [Compound 49, N-(5-(1-methyl-piperidin-4-yl)pyridin-2-yl)-3-(3-methylpyridin-2-yl)-1,2,4-thiadiazol-5-amine] | 5.30 to 6.30
COc1ccc(-c2nsc(Nc3ccc(C4CCN(C)CC4)cn3)n2)nc1 [Compound 50, 3-(5-methoxy-pyridin-2-yl)-N-(5-(1-methyl-piperidin-4-yl)pyridin-2-yl)-1,2,4-thiadiazol-5-amine] | 5.30 to 6.30
Cc1cccnc1-c1nsc(Nc2ccc(N3CCCC3)cn2)n1 [Compound 51, 3-(3-methyl-pyridin-2-yl)-N-(5-(pyrrolidin-1-yl)pyridin-2-yl)-1,2,4-thiadiazol-5-amine] | > 6.70
Cc1cccnc1Nc1nc(-c2ccc(OC(F)(F)F)cn2)ns1 [Compound 52, N-(3-methyl-pyridin-2-yl)-3-(5-(trifluoro-methoxy)pyridin-2-yl)-1,2,4-thiadiazol-5-amine] | > 6.70
CNc1cccnc1Nc1nc(-c2ccc(OC3CCN(C)CC3)cn2)ns1 [Compound 53, N3-methyl-N2-(3-(5-(1-methyl-piperidin-4-yloxy)pyridin-2-yl)-1,2,4-thiadiazol-5-yl) pyridine-2,3-diamine] | 6.30 to 6.70
CC(C)Oc1ccc(-c2nsc(Nc3ncccc3C(F)(F)F)n2)nc1 [Compound 54, 3-(5-isopropoxy-pyridin-2-yl)-N-(3-(trifluoromethyl)pyridin-2-yl)-1,2,4-thiadiazol-5-amine] | > 6.70
CN1CCC(Oc2ccc(-c3nsc(Nc4ncccc4C(F)(F)F)n3)nc2)CC1 [Compound 55, 3-(5-(1-methyl-piperidin-4-yloxy)pyridin-2-yl)-N-(3-(trifluoromethyl)pyridin-2-yl)-1,2,4-thiadiazol-5-amine] | > 6.70
CC(C)Oc1ccc(-c2nsc(Nc3ncccc3N(C)C)n2)nc1 [Compound 56, N2-(3-(5-isoprop-oxypyridin-2-yl)-1,2,4-thiadiazol-5-yl)-N3,N3 - dimethyl-pyridine-2,3-diamine] | 5.30 to 6.30
Cc1cccnc1Nc1nc(-c2ccc(C(=O)N3CCN(C)CC3)cn2)ns1 [Compound 57, (4-methyl-piperazin-1-yl)(6-(5-(3-methyl-pyridin-2-ylamino)-1,2,4-thiadiazol-3-yl)pyridin-3-yl) methanone] | 5.30 to 6.30
Cc1cccnc1Nc1nc(-c2ccc(C(=O)N3CCOCC3)cn2)ns1 [Compound 58, (6-(5-(3-methyl-pyridin-2-ylamino)-1,2,4-thiadiazol-3-yl)pyridin-3-yl)(morpholino) methanone] | 6.30 to 6.70
CN1CCC(Oc2ccc(-c3nsc(Nc4ncccc4N(C)C)n3)nc2)CC1 [Compound 59, N3,N3-dimethyl-N2-(3-(5-(1-methylpiperidin-4-yloxy)pyridin-2-yl)-1,2,4-thiadiazol-5-yl)pyridine-2,3-diamine] | 5.30 to 6.30
Cc1cccnc1Nc1nc(-c2ccc(C(=O)NCC(F)(F)F)cn2)ns1 [Compound 60, 6-(5-(3-methyl-pyridin-2-ylamino)-1,2,4-thiadiazol-3-yl)-N-(2,2,2-trifluoroethyl) nicotinamide] | 5.30 to 6.30
Cc1cccnc1Nc1nc(-c2ccc(C(=O)N3CCCC3)cn2)ns1 [Compound 61, (6-(5-(3-methyl-pyridin-2-ylamino)-1,2,4-thiadiazol-3-yl)pyridin-3-yl) (pyrrolidin-1-yl)methanone] | 6.30 to 6.70
CN1CCC(Oc2ccnc(-c3nsc(Nc4ncccc4C(F)(F)F)n3)c2)CC1 [Compound 62, 3-(4-(1-methyl-piperidin-4-yloxy)pyridin-2-yl)-N-(3-(trifluoromethyl)pyridin-2-yl)-1,2,4-thiadiazol-5-amine] | > 6.70
Cc1cccnc1Nc1nnc(-c2ccc(OC3CCN(C)CC3)cn2)s1 [Compound 63, 5-(5-(1-methyl-piperidin-4-yloxy)pyridin-2-yl)-N-(3-methylpyridin-2-yl)-1,3,4-thiadiazol-2-amine] | 5.30 to 6.30
Cc1cccnc1Nc1nnc(-c2ccc(OC(C)C)cn2)s1 [Compound 64, 5-(5-isopropoxy-pyridin-2-yl)-N-(3-methyl-pyridin-2-yl)-1,3,4-thiadiazol-2-amine] | 5.30 to 6.30
Cc1cccnc1Nc1nc(-c2cc(OC3CC3)ccn2)ns1 [Compound 65, 3-(4-cycloprop-oxypyridin-2-yl)-N-(3-methyl-pyridin-2-yl)-1,2,4-thiadiazol-5-amine] | 5.30 to 6.30
COc1ccc(-c2nsc(Nc3cc(C(F)(F)F)c(C(C)C)cn3)n2)nc1 [Compound 66, N-(5-isopropyl-4-(trifluoromethyl)pyridin-2-yl)-3-(5-methoxy-pyridin-2-yl)-1,2,4-thiadiazol-5-amine] | 6.30 to 6.70
CC(C)c1ccnc(-c2nsc(Nc3ncccc3C(F)(F)F)n2)c1 [Compound 67, 3-(4-isopropyl-pyridin-2-yl)-N-(3-(trifluoromethyl)pyridin-2-yl)-1,2,4-thiadiazol-5-amine] | > 6.70

Compound | pIC50
COc1ccc(-c2nsc(Nc3ccc(C4CCCC4)cn3)n2)nc1 [Compound 68, N-(5-cyclopentyl-pyridin-2-yl)-3-(5-methoxypyridin-2-yl)-1,2,4-thiadiazol-5-amine] | 6.30 to 6.70
Cc1cccnc1Nc1nc(-c2ccc(OC(C)C)cn2)n[nH]1 [Compound 69, N-(3-(5-isopropoxy-pyridin-2-yl)-1H-1,2,4-triazol-5-yl)-3-methylpyridin-2-amine] | 6.30 to 6.70
CC(C)Oc1ccc(-c2n[nH]c(Nc3ncccc3C(F)(F)F)n2)nc1 [Compound 70, N-(3-(5-isopropoxy-pyridin-2-yl)-1H-1,2,4-triazol-5-yl)-3-(trifluoromethyl) pyridin-2-amine] | 5.30 to 6.30
Cc1cccnc1Nc1nc(-c2ccc(OC3CCN(C)CC3)cn2)n[nH]1 [Compound 71, 3-methyl-N-(3-(5-(1-methyl-piperidin-4-yloxy)pyridin-2-yl)-1H-1,2,4-triazol-5-yl) pyridin-2-amine] | 5.30 to 6.30
Cc1cccnc1Nc1nc(-c2ccc(OC3CCN(C4CCCC4)CC3)cn2)ns1 [Compound 72, 3-(5-(1-cyclo-pentylpiperidin-4-yloxy)pyridin-2-yl)-N-(3-methylpyridin-2-yl)-1,2,4-thiadiazol-5-amine] | 6.30 to 6.70
Cc1cccnc1Nc1nc(-c2ccc(OCC3CC3)cn2)ns1 [Compound 73, 3-(5-(cyclopropyl-methoxy)pyridin-2-yl)-N-(3-methylpyridin-2-yl)-1,2,4-thiadiazol-5-amine] | > 6.70
CC(C)c1cccnc1Nc1nc(-c2ccc(OC3CC3)cn2)ns1 [Compound 74, 3-(5-cyclopropoxy-pyridin-2-yl)-N-(3-isopropylpyridin-2-yl)-1,2,4-thiadiazol-5-amine] | > 6.70
Cc1cccnc1Nc1nc(-c2ccc(OC3CCN(CC4CC4)CC3)cn2)ns1 [Compound 75, 3-(5-(1-(cyclopropyl-methyl)piperidin-4-yloxy)pyridin-2-yl)-N-(3-methylpyridin-2-yl)-1,2,4-thiadiazol-5-amine] | 6.30 to 6.70
CC(C)Oc1ccc(-c2nsc(Nc3ncccc3C3CC3)n2)nc1 [Compound 76, N-(3-cyclopropyl-pyridin-2-yl)-3-(5-isopropoxy-pyridin-2-yl)-1,2,4-thiadiazol-5-amine] | > 6.70
Cc1cccnc1Nc1nc(-c2ccc(OC3CC4(CCN(C)C4)C3)cn2)ns1 (stereo not shown) [Compound 77, 3-(5-(6-methyl-6-azaspiro [3.4]octan-2-yloxy)pyridin-2-yl)-N-(3-methylpyridin-2-yl)-1,2,4-thiadiazol-5-amine] | 5.30 to 6.30
CN(C)c1cccnc1Nc1nc(-c2ccc(OC3CC3)cn2)ns1 [Compound 78, N2-(3-(5-cyclopropoxy-pyridin-2-yl)-1,2,4-thiadiazol-5-yl)-N3,N3-dimethyl-pyridine-2,3-diamine] | 5.30 to 6.30
Cc1cccnc1Nc1nc(-c2ccc(S(C)(=O)=O)cn2)ns1 [Compound 79, N-(3-methyl-pyridin-2-yl)-3-(5-(methyl-sulfonyl)pyridin-2-yl)-1,2,4-thiadiazol-5-amine] | 5.30 to 6.30
COc1cccnc1Nc1nc(-c2ccc(OC3CC3)cn2)ns1 [Compound 80, 3-(5-cycloprop-oxypyridin-2-yl)-N-(3-methoxypyridin-2-yl)-1,2,4-thiadiazol-5-amine] | 6.30 to 6.70
COc1cccnc1Nc1nc(-c2ccc(OC(C)C)cn2)ns1 [Compound 81, 3-(5-isopropoxy-pyridin-2-yl)-N-(3-methoxy-pyridin-2-yl)-1,2,4-thiadiazol-5-amine] | > 6.70
Cc1cccnc1Nc1nc(-c2ccc(OC3CC4(C3)CN(C3CC3)C4)cn2)ns1 [Compound 82, 3-(5-(2-cyclo-propyl-2-azaspiro[3.3]heptan-6-yloxy)pyridin-2-yl)-N-(3-methylpyridin-2-yl)-1,2,4-thiadiazol-5-amine] | 6.30 to 6.70
Cc1cccnc1Nc1nc(-c2ccc(OC3CCN(C4CC4)CC3(F)F)cn2)ns1 (stereo not shown) [Compound 83, 3-(5-(1-cyclo-propyl-3,3-difluoro-piperidin-4-yloxy)pyridin-2-yl)-N-(3-methylpyridin-2-yl)-1,2,4-thiadiazol-5-amine] | 6.30 to 6.70
FC(F)(F)c1cccnc1Nc1nc(-c2cc(C3CC3)ccn2)ns1 [Compound 84, 3-(4-cyclopropyl-pyridin-2-yl)-N-(3-(trifluoromethyl)pyridin-2-yl)-1,2,4-thiadiazol-5-amine] | > 6.70
FC(F)(F)c1ccnc(Nc2nc(-c3cc(C4CC4)ccn3)ns2)c1 [Compound 85, 3-(4-cyclopropyl-pyridin-2-yl)-N-(4-(trifluoromethyl)pyridin-2-yl)-1,2,4-thiadiazol-5-amine] | > 6.70
CC(C)c1ccnc(-c2nsc(Nc3cc(C(F)(F)F)ccn3)n2)c1 [Compound 86, 3-(4-isopropyl-pyridin-2-yl)-N-(4-(trifluoromethyl)pyridin-2-yl)-1,2,4-thiadiazol-5-amine] | > 6.70
CC(C)c1cccnc1Nc1nc(-c2ccc(OC3CCN(C4CC4)CC3(F)F)cn2)ns1 (stereo not shown) [Compound 87, 3-(5-(1-cyclo-propyl-3,3-difluoro-piperidin-4-yloxy)pyridin-2-yl)-N-(3-isopropylpyridin-2-yl)-1,2,4-thiadiazol-5-amine] | > 6.70
